Test results from patent US7132542B2, “Compounds for the treatment of male erectile dysfunction” (Bristol-Myers Squibb Company, priority 2003, dated 2006).

Legend:
[1] = test system: rat small intestine tissue; test: Relaxation of rat small intestine (ileum) segments; set-up: concentration or dose not given beside the values; details: integral of nifedipine-sensitive force, 30 min post-compound addition
Excerpt: The ability of the compounds of the invention to relax rat small intestine tissue as a model for the treatment of irritable bowel syndrome is described as follows. Male rats (Harlan, Sprague Dawley, 250–350 g) were sacrificed by decapitation. A portion of small intestine (ileum) was removed and the attached connective tissues and intestinal contents removed. The ileum was cut into segments of ≦1 cm in length. The segments were mounted longitudinally between fixed hooks in organ baths containing warm (37° C.) physiological salt solution (composition in mM: NaCl 118.4, KCl 4.7, KH2PO4 1.2, MgSO4 1.2, CaCl2 1.8, Glucose 10.1, NaHCO3 25; gassed with 95% O2/5% CO2, pH 7.4). A stable tension of ˜1.5 g was maintained in the tissue segments during the equilibration period of 45 minutes. Changes in muscle tension were measured with isometric force transducers (Grass, FT-03C) and recorded using AcqKnowledge data acquisition system (AcqKnowledge for MP100WS, Biopac Systems Inc., Goleta, Calif.). Compound or vehicle was added in the baths for 30 minutes. “Zero” active force was established at the end of the experiment using nifedipine (20 μM). The effects of compounds or vehicle on force was determined by measuring the integral of nifedipine-sensitive force (including resting tone and spontaneous contractions) pre- and 30 min post-compound (or vehicle) addition. Results are expressed as the percentage inhibition of force. DMSO vehicle inhibited force (integral) by −0.6±3.0% (n=25).

[2] = test system: rabbit corpus cavernosum tissue; test: Relaxation of rabbit corpus cavernosum strips precontracted with phenylephrine; details: Oryctolagus cuniculus; inhibition of phenylephrine (3 μM)-induced force as compared to vehicle control; read-out: % Inhibition of force (RCC strips)
Description: The ability of the compounds of the invention to relax rabbit corpus cavernosum tissue as a model for the treatment of erectile dysfunction is described as follows. New Zealand white rabbits (3.4–3.7 kg) were euthanized by sodium pentobarbital (100 mg/kg) overdose. The penis from each animal was rapidly removed and immersed in a cold oxygenated modified Krebs Henseleit bicarbonate buffer. The penis' outer tunica was removed and the corpus cavernosum smooth muscle obtained and cut into strips approximately 3–5 mm long. The strips were suspended in tissue baths containing physiological salt solution (see above), and allowed to equilibrate for at least one hour under resting tension of 1.0 gram. Isometric force was measured as described above. Tissue strips were stimulated with the α-agonist phenylephrine (3 μM) and allowed to reach a steady level of force prior to the addition of test compounds. The results are expressed as the percentage inhibition of phenylephrine-induced force as compared to vehicle control.

[3] = test system: cloned mammalian (mSlo or hSlo) BK channel; test: Assay for BK channel openers: two-electrode voltage clamp of BK-mediated outward current in Xenopus oocytes; assay type: cell-based; details: at 20 μM; percent increase over BK current in controls, voltage step to +140 mV; IBTX-sensitive current
Description: The ability of the compounds of the invention to open BK channels and increase whole-cell outward (K^+) BK-mediated currents was assessed under voltage-clamp conditions by determining their ability to increase cloned mammalian (mSlo or hSlo) BK-mediated outward current heterologously expressed in Xenopus oocytes [Butler, A., et al., Science 1993, 261, 221–224; Dworetzky, S. I., et al., Mol. Brain Res. 1994, 27, 189–193; Gribkoff, V. K., et al., Mol. Pharmacol. 1996, 50, 206–217]. The two BK constructs employed represent nearly structurally identical homologous proteins, and have proven to be pharmacologically indistinguishable in our tests. To isolate BK current from native (background, non-BK) current, the specific and potent BK channel-blocking toxin iberiotoxin (IBTX) [Galvez, A., et al., J. Biol. Chem. 1990, 265, 11083–11090] was employed at a supramaximal concentration, e.g., 50–100 nanomolar (“nM”). The relative contribution of BK channel-mediated current to total outward current was determined by subtraction of the current remaining in the presence of IBTX (non-BK current) from the current profiles obtained in all other experimental conditions (control, drug, and wash) [Gribkoff, V. K. et al., Mol. Pharmacol. 1996, 50, 206–217]. […] All compounds were tested in 5–10 oocytes and are reported at the indicated concentration of 20 micromolar (“μM”) (or as otherwise indicated); the effect of the selected compounds of the invention on BK current was expressed as the percent of control IBTX-sensitive current at a single transmembrane voltage (+140 mV) and is listed in Table 1. Recordings were accomplished using standard two-electrode voltage clamp techniques [Stuhmer, W., et al., Methods in Enzymology, 1992, 207, 319–339]; voltage-clamp protocols consisted of 500–750 milliseconds (“ms”) duration step depolarizations, from a holding potential of −60 mV, to a final voltage up to +140 mV in 20 mV steps. The experimental media (modified Barth's solution) consisted of millimolar (“mM”): NaCl (88), NaHCO3 (2.4), KCl (1.0), HEPES (10), MgSO4 (0.82), Ca(NO3)2 (0.33), CaCl2 (0.41); pH 7.5.

## CN1CCN(CCC(=O)Nc2ccc(Sc3c(-c4cc(Cl)ccc4O)c4cc(C(F)(F)F)ccc4[nH]c3=O)cc2)CC1 [Example 11, N-[4-[[4-(5-chloro-2-hydroxyphenyl)-1,2-dihydro-2-oxo-6-(trifluoromethyl)-3-quinolinyl]thio]phenyl]-4-methyl-1-piperazinepropanamide]
[1]
  % Inhibition of force (RSI strips): 70%
[2]
  inhibition: 30%
[3]
  % MaxiK opening: 474%
